Assay results reported in patent publication US7750013B2, “N-oxides as prodrugs of piperazine and piperidine derivatives” (Solvay Pharmaceuticals, B.V., priority 2005, dated 2010).

What was measured:
[1] = Plasma concentrations of tertiary amines and their N-oxides in mice (LC-MS); settings: mouse, in vivo
Method: The LC-MS system consists of 2 Perkin elmer series 200 micro pumps. The pumps are connected to each other by a 50 μl tee mixer, connected to a Gilson 215 auto sampler. The method is as follows:
The auto sampler has a 2 μl injection loop. The auto sampler is connected to a Waters Atlantis C18 30*4.6 mm column with 3 μm particles. The column is thermo stated in a Perkin Elmer series 200 column oven at 40° C. The column is connected to a Perkin Elmer series 200 UV meter with a 2.7 μl flowcel. The wavelength is set to 254 nm. The UV meter is connected to a Sciex API 150EX mass spectrometer. The mass spectrometer has the following parameters: Scanrange: 150-900 a.m.u.; polarity: positive; scan mode: profile; resolution Q1: UNIT; step size: 0.10 a.m.u.; time per scan: 0.500 sec; NEB: 10; CUR: 10; IS: 5200; TEM: 325; DF: 30; FP: 225 and EP: 10. The light scattering detector is connected to the Sciex API 150. The light scattering detector is a Sedere Sedex 55 operating at 50° C. and 3 bar N2. The complete system is controlled by a G3 powermac.
For oral (p.o.) administration: to the desired quantity (0.5-5 mg) of the solid test compound in a glass tube, some glass beads were added and the solid was milled by vortexing for 2 minutes. After addition of 1 ml of a solution of 1% methylcellulose in water and 2% (v/v) of Poloxamer 188 (Lutrol F68), the compound was suspended by vortexing for 10 minutes. The pH was adjusted to 7. Remaining particles in the suspension were further suspended by using an ultrasonic bath.
For intravenous (i.v.) administration: compounds were dissolved in physiological saline (0.9% NaCl) and the pH was adjusted to 7.
Bifeprunox, SLV308 and SLV318 as well as their respective N-oxides were individually administered (either intravenously (i.v.) or orally (p.o.)) to mice (3 animals per time point), after which their blood was analyzed by LC-MS (method see above) for both the parent amine and its N-oxide. Data were averaged (n=3), and collected in the tables below.

[2] = Metabolism to the N-oxide in man; assay type: in vivo; settings: after administration of the tertiary amine
Excerpt: But also its N-desmethyl analog and its N-oxide were detected in the plasma of all three species, after oral administration of SLV308. In man, the N-oxide accounts for approximately 30% of the administered dose.
In man, neither bifeprunox nor SLV318 are metabolized to their respective N-oxides. […] For this reason there never has been an incentive to synthesize and study these compounds until the unexpected findings with the N-oxide of SLV308.

For `O=c1[nH]c2cccc(N3CC[N+]([O-])(Cc4ccccc4)CC3)c2o1` [N-oxide of SLV318, N-Oxide of SLV318], the “Analyzed in blood: N-oxide (of SLV318)” value ([1]; iv, 0.5 mg/kg, 24 hr) was 0 ng/mL, the “Analyzed in blood: SLV318” value ([1]; po, 5 mg/kg, 0.17 hr) was 1 ng/mL and the “Analyzed in blood: SLV318” value ([1]; po, 5 mg/kg, 0.5 hr) was 7 ng/mL. The “Analyzed in blood: N-oxide (of SLV318)” value ([1]; po, 5 mg/kg, 3 hr) was 0 ng/mL and the “Analyzed in blood: SLV318” value ([1]; po, 5 mg/kg, 24 hr) was 0 ng/mL.

For `O=c1[nH]c2cccc(N3CC[N+]([O-])(Cc4cccc(-c5ccccc5)c4)CC3)c2o1` [N-oxide of bifeprunox, N-Oxide of Bifeprunox], the “Analyzed in blood: Bifeprunox” value ([1]; iv, 0.5 mg/kg, 0 hr) was 0 ng/mL, the “Analyzed in blood: Bifeprunox” value ([1]; iv, 0.5 mg/kg, 0.5 hr) was 176 ng/mL and the “Analyzed in blood: N-oxide (of bifeprunox)” value (“Analyzed … (of bifeprunox)” for short) ([1]; iv, 0.5 mg/kg, 0.5 hr) was 85 ng/mL. The “Analyzed in blood: Bifeprunox” value ([1]; iv, 0.5 mg/kg, 3 hr) was 80 ng/mL, the “Analyzed … (of bifeprunox)” value ([1]; iv, 0.5 mg/kg, 7 hr) was 5 ng/mL and the “Analyzed … (of bifeprunox)” value ([1]; iv, 0.5 mg/kg, 24 hr) was 0 ng/mL. The “Analyzed in blood: Bifeprunox” value ([1]; po, 5 mg/kg, 1 hr) was 520 ng/mL, the “Analyzed … (of bifeprunox)” value ([1]; po, 5 mg/kg, 1 hr) was 70 ng/mL and the “Analyzed … (of bifeprunox)” value ([1]; po, 5 mg/kg, 7 hr) was 48 ng/mL. For the same compound, the “Analyzed in blood: Bifeprunox” value ([1]; po, 5 mg/kg, 24 hr) was 38 ng/mL and the “Analyzed … (of bifeprunox)” value ([1]; po, 5 mg/kg, 24 hr) was 6 ng/mL.

For `O=c1[nH]c2cccc(N3CCN(Cc4ccccc4)CC3)c2o1` [SLV318], the “Formation of N-oxide as metabolite (in words)” value [1] was “does not give rise to a significant amount of N-oxide as metabolite”, the “Analyzed in blood: N-oxide (of SLV318)” value ([1]; iv, 0.5 mg/kg, 0.17 hr) was 1 ng/mL and the “Analyzed in blood: SLV318” value ([1]; iv, 0.5 mg/kg, 0.17 hr) was 164 ng/mL. For the same compound, the “Analyzed in blood: N-oxide (of SLV318)” value ([1]; iv, 0.5 mg/kg, 0.5 hr) was 0 ng/mL, the “Analyzed in blood: SLV318” value ([1]; iv, 0.5 mg/kg, 0.5 hr) was 51 ng/mL and the “Analyzed in blood: N-oxide (of SLV318)” value ([1]; iv, 0.5 mg/kg, 1 hr) was 0 ng/mL. The “Analyzed in blood: SLV318” value ([1]; iv, 0.5 mg/kg, 1 hr) was 18 ng/mL, the “Analyzed in blood: N-oxide (of SLV318)” value ([1]; iv, 0.5 mg/kg, 3 hr) was 0 ng/mL and the “Analyzed in blood: SLV318” value ([1]; iv, 0.5 mg/kg, 3 hr) was 2 ng/mL. The “Analyzed in blood: N-oxide (of SLV318)” value ([1]; iv, 0.5 mg/kg, 7 hr) was 0 ng/mL, the “Analyzed in blood: SLV318” value ([1]; iv, 0.5 mg/kg, 7 hr) was 0.2 ng/mL and the “Analyzed in blood: N-oxide (of SLV318)” value ([1]; iv, 0.5 mg/kg, 24 hr) was 0 ng/mL. The “Analyzed in blood: SLV318” value ([1]; iv, 0.5 mg/kg, 24 hr) was 0 ng/mL, the “Analyzed in blood: N-oxide (of SLV318)” value ([1]; po, 5 mg/kg, 0.17 hr) was 0 ng/mL and the “Analyzed in blood: SLV318” value ([1]; po, 5 mg/kg, 0.17 hr) was 71 ng/mL. For the same compound, the “Analyzed in blood: N-oxide (of SLV318)” value ([1]; po, 5 mg/kg, 0.5 hr) was 0 ng/mL, the “Analyzed in blood: SLV318” value ([1]; po, 5 mg/kg, 0.5 hr) was 33 ng/mL and the “Analyzed in blood: N-oxide (of SLV318)” value ([1]; po, 5 mg/kg, 1 hr) was 0 ng/mL. The “Analyzed in blood: SLV318” value ([1]; po, 5 mg/kg, 1 hr) was 19 ng/mL, the “Analyzed in blood: N-oxide (of SLV318)” value ([1]; po, 5 mg/kg, 3 hr) was 0 ng/mL and the “Analyzed in blood: SLV318” value ([1]; po, 5 mg/kg, 3 hr) was 9 ng/mL. The “Analyzed in blood: N-oxide (of SLV318)” value ([1]; po, 5 mg/kg, 7 hr) was 0 ng/mL, the “Analyzed in blood: SLV318” value ([1]; po, 5 mg/kg, 7 hr) was 2 ng/mL and the “Analyzed in blood: N-oxide (of SLV318)” value ([1]; po, 5 mg/kg, 24 hr) was 0 ng/mL. For the same compound, the “Analyzed in blood: SLV318” value ([1]; po, 5 mg/kg, 24 hr) was 0 ng/mL and the “N-oxide as metabolite in blood plasma (in words)” value [2] was “never detected in significant concentrations”.
